Patent US12378224B2 (Dong-A Socio Holdings Co., Ltd., priority 2016, dated 2025)

Target: human c-MER catalytic domain (Homo sapiens (Human), UniProt Q12866)
Assay: TR-FRET Kinase Activity Biochemical Assay (LanthaScreen)
Conditions: 10 uM ATP, 1 hour, kinase not given
Text: For the SAR (structure-activity relationship) and compound screening, LanthaScreen™ TR-FRET (Time-Resolved fluorescence energy transfer) assay was employed using the phospho-tyrosine specific Terbium (Tb)-labelded antibody with a fluorescein labeled poly-GT (glutamate-tyrosine) as a substrate. Upon excitation at 340 nm by UV, the energy from Tb donor of the antibody is transferred to the fluorescein of the phosphorylated poly GT substrate, and fluorescein emits light at 520 nm. The ratio between the intensity of […] was used to quantify the level of kinase activity. The recombinant proteins of human c-MER and AXL catalytic domains, Fluorescein-labeled poly-GT substrate, Tb-labeled anti-phosphorylated tyrosine antibodies, the kinase assay buffer, and 0.5M EDTA solution were purchased (Life technologies, USA). The TR-FRET assays were carried out in the white low volume 384-well plate (Corning, USA). […] 10 mM EDTA was added to terminate the enzyme reaction, and the level of phosphorylation of poly-GT substrate was determined following 30 min incubation with 2 nM Tb-labeled antibody. The fluorescence intensity was measured with Envision™ plate reader (PerkinElmer, USA).

Sequence of human c-MER catalytic domain (Q12866 587-858): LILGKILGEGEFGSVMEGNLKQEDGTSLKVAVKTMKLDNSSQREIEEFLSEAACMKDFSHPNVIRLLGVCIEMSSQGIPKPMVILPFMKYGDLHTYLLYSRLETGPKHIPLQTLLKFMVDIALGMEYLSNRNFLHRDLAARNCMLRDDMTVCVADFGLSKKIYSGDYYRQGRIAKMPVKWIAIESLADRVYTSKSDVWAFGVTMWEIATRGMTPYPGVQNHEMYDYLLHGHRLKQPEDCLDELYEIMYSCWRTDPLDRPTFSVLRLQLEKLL

| IC50 | Molecule |
| --- | --- |
| 100 to 1000 nM | Cn1cc(-c2cnc(N)c(C(=O)N[C@@H]3CCN(C(=O)Nc4ccccc4)C3)c2)cn1 [Example 1, (R)-2-amino-5-(1-methyl-1H-pyrazol-4-yl)-N-(1-(phenylcarbamoyl)pyrrolidin-3-yl)nicotinamide] |
| 10 to 100 nM | Nc1ncc(-c2ccc(C(=O)N3CCOCC3)cc2)cc1C(=O)N[C@@H]1CCN(C(=O)Nc2cc(Cl)cc(Cl)c2)C1 [Example 9, (R)-2-amino-N-(1-((3,5-dichlorophenyl)carbamoyl)pyrrolidin-3-yl)-5-(4-(morpholine-4-carbonyl)phenyl)nicotinamide] |
| 10 to 100 nM | Nc1ncc(-c2ccc(CO)cc2)cc1C(=O)N[C@@H]1CCN(C(=O)Nc2cc(Cl)cc(Cl)c2)C1 [Example 10, (R)-2-amino-N-(1-((3,5-dichlorophenyl)carbamoyl)pyrrolidin-3-yl)-5-(4-(hydroxymethyl)phenyl)nicotinamide] |
| 10 to 100 nM | Cn1cc(-c2cnc(N)c(C(=O)N[C@@H]3CCN(C(=O)Nc4cccc(Cl)c4Cl)C3)c2)cn1 [Example 15, (R)-2-amino-N-(1-((2,3-dichlorophenyl)carbamoyl)pyrrolidin-3-yl)-5-(1-methyl-1H-pyrazol-4-yl)nicotinamide] |

| Molecule | IC50 |
| --- | --- |
| Cn1cc(-c2cnc(N)c(C(=O)N[C@@H]3CCN(C(=O)Nc4cccnc4)C3)c2)cn1 [Example 13, (R)-2-amino-5-(1-methyl-1H-pyrazol-4-yl)-N-(1-(pyridin-3-ylcarbamoyl)pyrrolidin-3-yl)nicotinamide] | > 1000 nM |

Target: human MER (528-end) (Homo sapiens (Human), UniProt Q12866)
Assay: HTRF Kinase Activity Biochemical Assay (KinEASE-TK)
Conditions: 10 uM ATP
How it was run: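 Recombinant human MER (528-end) phosphorylated biotin-TK peptide substrate, 1 h at room temperature. Reaction stopped with detection buffer containing 0.375 nM Eu3+-cryptate anti-TK antibody and 0.062 uM streptavidin-XL665, 1 h further. Activity taken as HTRF ratio 665/620 nm ×10,000, 340 nm excitation.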

Sequence of human MER (528-end) (Q12866 528-999 limits assumed): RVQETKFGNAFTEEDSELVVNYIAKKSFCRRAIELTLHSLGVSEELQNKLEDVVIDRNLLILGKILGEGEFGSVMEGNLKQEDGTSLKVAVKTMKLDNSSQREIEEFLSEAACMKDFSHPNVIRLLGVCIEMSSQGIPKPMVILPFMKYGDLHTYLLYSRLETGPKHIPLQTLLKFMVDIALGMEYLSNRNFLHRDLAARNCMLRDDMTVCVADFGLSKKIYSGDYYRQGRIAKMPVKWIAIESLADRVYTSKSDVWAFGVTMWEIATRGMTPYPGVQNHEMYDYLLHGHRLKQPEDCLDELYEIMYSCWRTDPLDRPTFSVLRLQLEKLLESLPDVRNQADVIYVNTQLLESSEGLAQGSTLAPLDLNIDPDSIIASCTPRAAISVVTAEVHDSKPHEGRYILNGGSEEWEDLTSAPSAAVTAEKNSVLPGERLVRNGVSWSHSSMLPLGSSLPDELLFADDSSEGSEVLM

| IC50 | Molecule |
| --- | --- |
| > 1000 nM | Cn1cc(-c2cnc(N)c(C(=O)N[C@@H]3CCN(C(=O)c4ccc(-c5ccc(F)cc5Cl)cc4Cl)C3)c2)cn1 [Example 694, (R)-2-amino-N-(1-(2′,3-dichloro-4′-fluoro-[1,1′-biphenyl]-4-carbonyl)pyrrolidin-3-yl)-5-(1-methyl-1H-pyrazol-4-yl)nicotinamide] |
| > 1000 nM | Cn1cc(-c2cnc(N)c(C(=O)N[C@@H]3CCN(C(=O)[C@H]4C[C@@H]4c4ccccc4)C3)c2)cn1 [Example 705, 2-amino-5-(1-methyl-1H-pyrazol-4-yl)-N—((R)-1-((1S,2S)-2-phenylcyclopropane-1-carbonyl)pyrrolidin-3-yl)nicotinamide] |
| > 1000 nM | Cn1cc(-c2cnc(N)c(C(=O)N[C@@H]3CCN(C(=O)c4ccc(F)cc4Cl)C3)c2)cn1 [Example 716, (R)-2-amino-N-(1-(2-chloro-4-fluorobenzoyl)pyrrolidin-3-yl)-5-(1-methyl-1H-pyrazol-4-yl)nicotinamide] |
| 100 to 1000 nM | Cn1cc(-c2cnc(N)c(C(=O)N[C@@H]3CCN(C(=O)c4ccc(-c5ccc(C#N)cc5)cc4)C3)c2)cn1 [Example 726, (R)-2-amino-N-(1-(4′-cyano-[1,1′-biphenyl]-4-carbonyl)pyrrolidin-3-yl)-5-(1-methyl-1H-pyrazol-4-yl)nicotinamide] |
| 10 to 100 nM | Cn1cc(-c2cnc(N)c(C(=O)N[C@@H]3CCN(C(=O)c4ccc(-c5cccc(CN)c5)cc4)C3)c2)cn1 [Example 727, (R)-2-amino-N-(1-(3′-(aminomethyl)-[1,1′-biphenyl]-4-carbonyl)pyrrolidin-3-yl)-5-(1-methyl-1H-pyrazol-4-yl)nicotinamide] |
| 100 to 1000 nM | Cn1cc(-c2cnc(N)c(C(=O)N[C@@H]3CCN(C(=O)c4ccc(-c5ccccc5)cc4N)C3)c2)cn1 [Example 728, (R)-2-amino-N-(1-(3-amino-[1,1′-biphenyl]-4-carbonyl)pyrrolidin-3-yl)-5-(1-methyl-1H-pyrazol-4-yl)nicotinamide] |
| 100 to 1000 nM | Cn1cc(-c2cnc(N)c(C(=O)N[C@@H]3CCN(C(=O)/C=C/c4ccc(-c5ccccc5)cc4)C3)c2)cn1 [Example 730, (R,E)-N-(1-(3-([1,1′-biphenyl]-4-yl)acryloyl)pyrrolidin-3-yl)-2-amino-5-(1-methyl-1H-pyrazol-4-yl)nicotinamide] |
| 100 to 1000 nM | Cn1cc(-c2cnc(N)c(C(=O)N[C@@H]3CCN(C(=O)c4ccc(Oc5ccccc5)cc4)C3)c2)cn1 [Example 731, (R)-2-amino-5-(1-methyl-1H-pyrazol-4-yl)-N-(1-(4-phenoxybenzoyl)pyrrolidin-3-yl)nicotinamide] |
| > 1000 nM | Cn1cc(-c2cnc(N)c(C(=O)N[C@@H]3CCN(C(=O)c4cccc(Br)c4)C3)c2)cn1 [Example 733, (R)-2-amino-N-(1-(3-bromobenzoyl)pyrrolidin-3-yl)-5-(1-methyl-1H-pyrazol-4-yl)nicotinamide] |
| > 1000 nM | Cn1cc(-c2cnc(N)c(C(=O)NC[C@H]3CCCN3C(=O)c3ccc(-c4ccccc4)cc3)c2)cn1 [Example 736, (R)—N-((1-([1,1′-biphenyl]-4-carbonyl)pyrrolidin-2-yl)methyl)-2-amino-5-(1-methyl-1H-pyrazol-4-yl)nicotinamide] |
| > 1000 nM | Cn1cc(-c2cnc(N)c(C(=O)NC[C@@H]3CCN(C(=O)c4ccc(-c5ccccc5)cc4)C3)c2)cn1 [Example 738, (S)—N-((1-([1,1′-biphenyl]-4-carbonyl)pyrrolidin-3-yl)methyl)-2-amino-5-(1-methyl-1H-pyrazol-4-yl)nicotinamide] |
| 100 to 1000 nM | Cn1cc(-c2cnc(N)c(C(=O)N[C@@H]3CCN(C(=O)c4ccc(-c5ccccc5)cc4)C3)n2)cn1 [Example 744, (R)—N-(1-([1,1′-biphenyl]-4-carbonyl)pyrrolidin-3-yl)-3-amino-6-(1-methyl-1H-pyrazol-4-yl)pyrazine-2-carboxamide] |
| 100 to 1000 nM | Nc1ncc(-c2ccccc2)cc1C(=O)N[C@@H]1CCN(C(=O)c2ccc(-c3ccc(F)cc3Cl)cc2)C1 [Example 775, (R)-2-amino-N-(1-(2′-chloro-4′-fluoro-[1,1′-biphenyl]-4-carbonyl)pyrrolidin-3-yl)-5-phenylnicotinamide] |
| 100 to 1000 nM | CC(C)(c1ccc(-c2cnc(N)c(C(=O)N[C@@H]3CCN(C(=O)c4ccc(-c5ccccc5)cc4)C3)c2)cc1)N1CCN(S(=O)(=O)c2ccccc2[N+](=O)[O-])CC1 [Example 783, (R)—N-(1-([1,1′-biphenyl]-4-carbonyl)pyrrolidin-3-yl)-2-amino-5-(4-(2-(4-((2-nitrophenyl)sulfonyl)piperazin-1-yl)propan-2-yl)phenyl)nicotinamide] |
| 100 to 1000 nM | Cn1cc(-c2cnc(N)c(C(=O)N[C@@H]3CCN(C(=O)c4ccc(-c5ccc(Oc6ccc(N)nc6)cc5)cc4)C3)c2)cn1 [Example 813, (R)-2-amino-N-(1-(4′-((6-aminopyridin-3-yl)oxy)-[1,1′-biphenyl]-4-carbonyl)pyrrolidin-3-yl)-5-(1-methyl-1H-pyrazol-4-yl)nicotinamide] |
| 100 to 1000 nM | Cn1cc(-c2cnc(N)c(C(=O)N[C@@H]3CCN(C(=O)c4ccc(-c5ccc(Oc6nn[nH]n6)cc5)cc4)C3)c2)cn1 [Example 814, (R)—N-(1-(4′-((2H-tetrazol-5-yl)oxy)-[1,1′-biphenyl]-4-carbonyl)pyrrolidin-3-yl)-2-amino-5-(1-methyl-1H-pyrazol-4-yl)nicotinamide] |
| 100 to 1000 nM | Cn1cc(-c2cnc(N)c(C(=O)N[C@@H]3CCN(C(=O)c4ccc(/C=C/c5ccncc5)cc4)C3)c2)cn1 [Example 824, (R,E)-2-amino-5-(1-methyl-1H-pyrazol-4-yl)—N-(1-(4-(2-(pyridin-4-yl)vinyl)benzoyl)pyrrolidin-3-yl)nicotinamide] |
| 100 to 1000 nM | Cn1cc(-c2cnc(N)c(C(=O)N[C@@H]3CCN(C(=O)c4ccc(/C=C/c5ccccn5)cc4)C3)c2)cn1 [Example 825, (R,E)-2-amino-5-(1-methyl-1H-pyrazol-4-yl)—N-(1-(4-(2-(pyridin-2-yl)vinyl)benzoyl)pyrrolidin-3-yl)nicotinamide] |
| > 1000 nM | C/C(=C\c1ccc(C(=O)N2CC[C@@H](NC(=O)c3cc(-c4cnn(C)c4)cnc3N)C2)cc1)c1ccccc1 [Example 826, (R,E)-2-amino-5-(1-methyl-1H-pyrazol-4-yl)-N-(1-(4-(2-phenylprop-1-en-1-yl)benzoyl)pyrrolidin-3-yl)nicotinamide] |
| > 1000 nM | Cn1cc(-c2cnc(N)c(C(=O)N[C@@H]3CCN(C(=O)c4ccc(/C=C/C5CCNCC5)cc4)C3)c2)cn1 [Example 827, (R,E)-2-amino-5-(1-methyl-1H-pyrazol-4-yl)-N-(1-(4-(2-(piperidin-4-yl)vinyl)benzoyl)pyrrolidin-3-yl)nicotinamide] |
| > 1000 nM | COC(=O)/C=C/c1ccc(C(=O)N2CC[C@@H](NC(=O)c3cc(-c4cnn(C)c4)cnc3N)C2)cc1 [Example 828, methyl (R,E)-3-(4-(3-(2-amino-5-(1-methyl-1H-pyrazol-4-yl)nicotinamido)pyrrolidine-1-carbonyl)phenyl)acrylate] |
| > 1000 nM | Cn1cc(-c2cnc(N)c(C(=O)N[C@@H]3C[C@H](C(=O)O)N(C(=O)c4ccc(-c5ccc(F)cc5Cl)cc4)C3)c2)cn1 [Example 839, (2R,4R)-4-(2-amino-5-(1-methyl-1H-pyrazol-4-yl)nicotinamido)-1-(2′-chloro-4′-fluoro-[1,1′-biphenyl]-4-carbonyl)pyrrolidine-2-carboxylic acid] |
| > 1000 nM | (R)-2-amino-N-(1-(3,5-dihydroxy-2-naphthoyl)pyrrolidin-3-yl)-5-(1-methyl-1H-pyrazol-4-yl)nicotinamide [Example 668] |

| Molecule | IC50 |
| --- | --- |
| Cn1cc(-c2cnc(N)c(C(=O)NC[C@@H]3CCN(C(=O)c4cccc(-c5ccccc5)c4)C3)c2)cn1 [Example 739] | > 1000 nM |
